Common to all, as to test: relative viability (nuclei count vs DMSO), 5 days (fraction); higher = more cells survive
Compound in the test “17-AAG + OSI-027”: C=CCNC1=C2C[C@@H](C)C[C@H](OC)[C@H](O)[C@@H](C)/C=C(\C)[C@H](OC(N)=O)[C@@H](OC)/C=C\C=C(/C)C(=O)NC(=CC1=O)C2=O [17-AAG] + COc1cccc2cc(-c3nc([C@H]4CC[C@H](C(=O)O)CC4)n4ncnc(N)c34)[nH]c12 [OSI-027] (partner 0.5 µM)
An outline of the steps: (§1)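 Dosing by pin tool came one day after lung cancer cell lines were seeded in 1536-well plates, using either one drug or a fixed anchor-drug dose plus five library-drug doses (not always all listed) in √10 steps. After 5 days, nuclei were counted on 4× images. Relative viability is treated-well nuclei count divided by vehicle-well nuclei count, and values are medians of duplicate plates.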

Compound in the test “17-AAG + Crizotinib”: C=CCNC1=C2C[C@@H](C)C[C@H](OC)[C@H](O)[C@@H](C)/C=C(\C)[C@H](OC(N)=O)[C@@H](OC)/C=C\C=C(/C)C(=O)NC(=CC1=O)C2=O [17-AAG] + C[C@@H](Oc1cc(-c2cnn(C3CCNCC3)c2)cnc1N)c1c(Cl)ccc(F)c1Cl [Crizotinib] (partner 1 µM)
An outline of the steps:
as §1

Compound in the test “17-AAG + Linsitinib”: C=CCNC1=C2C[C@@H](C)C[C@H](OC)[C@H](O)[C@@H](C)/C=C(\C)[C@H](OC(N)=O)[C@@H](OC)/C=C\C=C(/C)C(=O)NC(=CC1=O)C2=O [17-AAG] + C[C@]1(O)C[C@@H](c2nc(-c3ccc4ccc(-c5ccccc5)nc4c3)c3c(N)nccn32)C1 [Linsitinib] (partner 1 µM)
An outline of the steps:
as §1

Compound in the test “17-AAG + Tozasertib”: C=CCNC1=C2C[C@@H](C)C[C@H](OC)[C@H](O)[C@@H](C)/C=C(\C)[C@H](OC(N)=O)[C@@H](OC)/C=C\C=C(/C)C(=O)NC(=CC1=O)C2=O [17-AAG] + Cc1cc(Nc2cc(N3CCN(C)CC3)nc(Sc3ccc(NC(=O)C4CC4)cc3)n2)n[nH]1 [Tozasertib] (partner 0.1 µM)
An outline of the steps: as §1

As to LC-2-ad, the relative viability with 17-AAG + OSI-027 (first compound 0.00128 µM) came out at 0.699; in the test with 17-AAG + OSI-027 (first compound 0.004048 µM), 0.542; with 17-AAG + OSI-027 (first compound 0.0128 µM) it was 0.426; with 17-AAG + OSI-027 (first compound 0.04048 µM), 0.301; with 17-AAG + OSI-027 (first compound 0.128 µM), 0.241; in the test with 17-AAG + Crizotinib (first compound 0.00128 µM), 0.452. Also, the relative viability in the test with 17-AAG + Crizotinib (first compound 0.004048 µM) worked out at 0.448; with 17-AAG + Crizotinib (first compound 0.0128 µM), 0.527; in the test with 17-AAG + Crizotinib (first compound 0.04048 µM), 0.278; with 17-AAG + Crizotinib (first compound 0.128 µM), 0.171; with 17-AAG + Linsitinib (first compound 0.00128 µM), 0.861; in the test with 17-AAG + Linsitinib (first compound 0.004048 µM), 0.883. Further, the relative viability worked out at 0.857 with 17-AAG + Linsitinib (first compound 0.0128 µM); 0.362 with 17-AAG + Linsitinib (first compound 0.04048 µM); 0.136 in the test with 17-AAG + Linsitinib (first compound 0.128 µM); 0.437 in the test with 17-AAG + Tozasertib (first compound 0.00128 µM); 0.437 in the test with 17-AAG + Tozasertib (first compound 0.004048 µM); 0.429 with 17-AAG + Tozasertib (first compound 0.0128 µM). Also, the relative viability turned out to be 0.316 with 17-AAG + Tozasertib (first compound 0.04048 µM) and 0.226 in the test with 17-AAG + Tozasertib (first compound 0.128 µM).
On to SK-MES-1, for which the relative viability with 17-AAG + OSI-027 (first compound 0.00128 µM) is 0.597; in the test with 17-AAG + OSI-027 (first compound 0.004048 µM), 0.426; with 17-AAG + OSI-027 (first compound 0.0128 µM) it was 0.127; with 17-AAG + OSI-027 (first compound 0.04048 µM) it was 0.136; with 17-AAG + OSI-027 (first compound 0.128 µM), 0.134; with 17-AAG + Crizotinib (first compound 0.00128 µM), 1.02. The relative viability with 17-AAG + Crizotinib (first compound 0.004048 µM) was determined as 1.01; with 17-AAG + Crizotinib (first compound 0.0128 µM), 0.822; in the test with 17-AAG + Crizotinib (first compound 0.04048 µM), 0.224; with 17-AAG + Crizotinib (first compound 0.128 µM) it was 0.144; with 17-AAG + Linsitinib (first compound 0.00128 µM) it was 1; with 17-AAG + Linsitinib (first compound 0.004048 µM), 1.01. Further, the relative viability with 17-AAG + Linsitinib (first compound 0.0128 µM) amounted to 0.598; in the test with 17-AAG + Linsitinib (first compound 0.04048 µM), 0.282; with 17-AAG + Linsitinib (first compound 0.128 µM) it was 0.165; with 17-AAG + Tozasertib (first compound 0.00128 µM), 0.872; with 17-AAG + Tozasertib (first compound 0.004048 µM), 0.851; with 17-AAG + Tozasertib (first compound 0.0128 µM) it was 0.168. Further, the relative viability is 0.164 with 17-AAG + Tozasertib (first compound 0.04048 µM) and 0.143 with 17-AAG + Tozasertib (first compound 0.128 µM).
Consider A-427, for which the relative viability with 17-AAG + OSI-027 (first compound 0.00128 µM) worked out at 0.484; in the test with 17-AAG + OSI-027 (first compound 0.004048 µM), 0.502; in the test with 17-AAG + OSI-027 (first compound 0.0128 µM), 0.502; with 17-AAG + OSI-027 (first compound 0.04048 µM), 0.343; with 17-AAG + OSI-027 (first compound 0.128 µM) it was 0.181; with 17-AAG + Crizotinib (first compound 0.00128 µM) it was 1.03. In addition, the relative viability with 17-AAG + Crizotinib (first compound 0.004048 µM) was determined as 0.872; with 17-AAG + Crizotinib (first compound 0.0128 µM) it was 0.899; in the test with 17-AAG + Crizotinib (first compound 0.04048 µM), 0.881; with 17-AAG + Crizotinib (first compound 0.128 µM) it was 0.798; with 17-AAG + Linsitinib (first compound 0.00128 µM), 1.12; with 17-AAG + Linsitinib (first compound 0.004048 µM) it was 1.1. Besides, the relative viability with 17-AAG + Linsitinib (first compound 0.0128 µM) came to 1.1; with 17-AAG + Linsitinib (first compound 0.04048 µM) it was 1.1; in the test with 17-AAG + Linsitinib (first compound 0.128 µM), 1.15; with 17-AAG + Tozasertib (first compound 0.00128 µM) it was 0.21; with 17-AAG + Tozasertib (first compound 0.004048 µM), 0.221; with 17-AAG + Tozasertib (first compound 0.0128 µM), 0.238. Also, the relative viability was 0.257 with 17-AAG + Tozasertib (first compound 0.04048 µM) and 0.186 in the test with 17-AAG + Tozasertib (first compound 0.128 µM).
As for NCI-H441, the relative viability with 17-AAG + OSI-027 (first compound 0.00128 µM) came out at 0.581; with 17-AAG + OSI-027 (first compound 0.004048 µM), 0.429; with 17-AAG + OSI-027 (first compound 0.0128 µM), 0.203; with 17-AAG + OSI-027 (first compound 0.04048 µM), 0.19; with 17-AAG + OSI-027 (first compound 0.128 µM) it was 0.137; with 17-AAG + Crizotinib (first compound 0.00128 µM), 0.804. Moreover, the relative viability with 17-AAG + Crizotinib (first compound 0.004048 µM) was determined as 0.707; with 17-AAG + Crizotinib (first compound 0.0128 µM) it was 0.462; with 17-AAG + Crizotinib (first compound 0.04048 µM), 0.292; with 17-AAG + Crizotinib (first compound 0.128 µM) it was 0.0949; in the test with 17-AAG + Linsitinib (first compound 0.00128 µM) it was 0.679; with 17-AAG + Linsitinib (first compound 0.004048 µM), 0.661. Moreover, the relative viability with 17-AAG + Linsitinib (first compound 0.0128 µM) amounted to 0.276; in the test with 17-AAG + Linsitinib (first compound 0.04048 µM), 0.174; with 17-AAG + Linsitinib (first compound 0.128 µM), 0.0829; with 17-AAG + Tozasertib (first compound 0.00128 µM), 0.723; with 17-AAG + Tozasertib (first compound 0.004048 µM), 0.609; with 17-AAG + Tozasertib (first compound 0.0128 µM), 0.321. Further, the relative viability in the test with 17-AAG + Tozasertib (first compound 0.04048 µM) was 0.235; with 17-AAG + Tozasertib (first compound 0.128 µM), 0.15.
Consider HCC-366, for which the relative viability with 17-AAG + OSI-027 (first compound 0.00128 µM) was 0.942; with 17-AAG + OSI-027 (first compound 0.004048 µM), 0.964; with 17-AAG + OSI-027 (first compound 0.0128 µM) it was 0.117; with 17-AAG + OSI-027 (first compound 0.04048 µM), 0.0472; with 17-AAG + OSI-027 (first compound 0.128 µM), 0.037; with 17-AAG + Crizotinib (first compound 0.00128 µM), 0.463. The relative viability with 17-AAG + Crizotinib (first compound 0.004048 µM) came to 0.506; in the test with 17-AAG + Crizotinib (first compound 0.0128 µM), 0.0283; with 17-AAG + Crizotinib (first compound 0.04048 µM), 0.018; with 17-AAG + Crizotinib (first compound 0.128 µM), 0.0156; with 17-AAG + Linsitinib (first compound 0.00128 µM) it was 0.52; in the test with 17-AAG + Linsitinib (first compound 0.004048 µM), 0.659. Also, the relative viability with 17-AAG + Linsitinib (first compound 0.0128 µM) came to 0.0425; with 17-AAG + Linsitinib (first compound 0.04048 µM), 0.0221; with 17-AAG + Linsitinib (first compound 0.128 µM), 0.0229; with 17-AAG + Tozasertib (first compound 0.00128 µM), 0.191; with 17-AAG + Tozasertib (first compound 0.004048 µM) it was 0.22; in the test with 17-AAG + Tozasertib (first compound 0.0128 µM), 0.268. Moreover, the relative viability is 0.044 in the test with 17-AAG + Tozasertib (first compound 0.04048 µM) and 0.0391 with 17-AAG + Tozasertib (first compound 0.128 µM).
NCI-H1975: the relative viability in the test with 17-AAG + OSI-027 (first compound 0.00128 µM) was 0.654; with 17-AAG + OSI-027 (first compound 0.004048 µM), 0.446; with 17-AAG + OSI-027 (first compound 0.0128 µM) it was 0.133; with 17-AAG + OSI-027 (first compound 0.04048 µM), 0.147; with 17-AAG + OSI-027 (first compound 0.128 µM), 0.115; in the test with 17-AAG + Crizotinib (first compound 0.00128 µM), 0.951. Moreover, the relative viability in the test with 17-AAG + Crizotinib (first compound 0.004048 µM) turned out to be 0.825; with 17-AAG + Crizotinib (first compound 0.0128 µM), 0.218; with 17-AAG + Crizotinib (first compound 0.04048 µM) it was 0.163; with 17-AAG + Crizotinib (first compound 0.128 µM), 0.126; in the test with 17-AAG + Linsitinib (first compound 0.00128 µM), 1.03; in the test with 17-AAG + Linsitinib (first compound 0.004048 µM) it was 0.725. In addition, the relative viability in the test with 17-AAG + Linsitinib (first compound 0.0128 µM) turned out to be 0.31; with 17-AAG + Linsitinib (first compound 0.04048 µM), 0.164; in the test with 17-AAG + Linsitinib (first compound 0.128 µM), 0.139; in the test with 17-AAG + Tozasertib (first compound 0.00128 µM), 0.796; with 17-AAG + Tozasertib (first compound 0.004048 µM), 0.587; with 17-AAG + Tozasertib (first compound 0.0128 µM), 0.145. In addition, the figures for the relative viability in the test with 17-AAG + Tozasertib (first compound 0.04048 µM) and in the test with 17-AAG + Tozasertib (first compound 0.128 µM) were 0.12 and 0.0964, respectively.
Consider NCI-H1437, for which the relative viability with 17-AAG + OSI-027 (first compound 0.00128 µM) was determined as 0.877; in the test with 17-AAG + OSI-027 (first compound 0.004048 µM), 0.836; with 17-AAG + OSI-027 (first compound 0.0128 µM), 0.656; with 17-AAG + OSI-027 (first compound 0.04048 µM) it was 0.186; in the test with 17-AAG + OSI-027 (first compound 0.128 µM), 0.123; in the test with 17-AAG + Crizotinib (first compound 0.00128 µM), 0.976. The relative viability with 17-AAG + Crizotinib (first compound 0.004048 µM) is 0.806; in the test with 17-AAG + Crizotinib (first compound 0.0128 µM), 0.378; in the test with 17-AAG + Crizotinib (first compound 0.04048 µM) it was 0.126; with 17-AAG + Crizotinib (first compound 0.128 µM) it was 0.0903; with 17-AAG + Linsitinib (first compound 0.00128 µM), 0.995; with 17-AAG + Linsitinib (first compound 0.004048 µM) it was 0.788. The relative viability with 17-AAG + Linsitinib (first compound 0.0128 µM) is 0.787; with 17-AAG + Linsitinib (first compound 0.04048 µM) it was 0.128; in the test with 17-AAG + Linsitinib (first compound 0.128 µM) it was 0.112; with 17-AAG + Tozasertib (first compound 0.00128 µM), 0.4; with 17-AAG + Tozasertib (first compound 0.004048 µM), 0.477; in the test with 17-AAG + Tozasertib (first compound 0.0128 µM), 0.296. Further, the relative viability with 17-AAG + Tozasertib (first compound 0.04048 µM) is 0.311; with 17-AAG + Tozasertib (first compound 0.128 µM), 0.164.

The record behind these values is the supplement of paper PMC10307832.
